According to EP3227262B1, “SULFIDE ALKYL AND PYRIDYL REVERSE SULFONAMIDE COMPOUNDS FOR HBV TREATMENT” (Novira Therapeutics Inc., priority 2014, dated 2016):

What follows are compounds tested on HBV (assay: Inhibition of HBV replication dot-blot assay in HBV-producing hepatoma cell line). Conditions: Hepatitis B virus, 144 h; activity in Dot-Blot assay; HepG2-2.2.15 cells; reduction in HBV DNA levels, six days.
Format: cell-based
Description: Compounds active in the HBV assembly assay are tested for their activity and toxicity in cellular assay. In the first anti-viral assay, the ability of compounds to inhibit HBV replication in an HBV-producing hepatoma cell line using the dot-blot method is evaluated.
(§1) Briefly, confluent monolayers of HepG2-2.2.15 cells are incubated with complete medium containing various concentrations of a test compound. Three days later, the culture medium is replaced with fresh medium containing the appropriately diluted test compound. Six days following the initial administration of the test compound, the cell culture supernatant is collected, and cell lysis is performed. The samples are applied onto Nylos membranes and DNA is immobilized to the membrane by UV cross-linking. After pre-hybridization, the HBV probe is added and the hybridization is performed overnight. The membranes are exposed to the KODAK films; antiviral activity is calculated from the reduction in HBV DNA levels (EC50). The EC50 for antiviral activity is calculated from the dose response curves of active compounds. Assay performance over time is monitored by the use of the standard positive control compounds ETV, BAY 41-4109, and HAP-1.
Selected compounds are tested for their activity and toxicity in cellular assay. In the first anti-viral assay, the ability of compounds to inhibit HBV replication in an HBV-producing hepatoma cell line using the dot-blot method is evaluated.
as §1, with “Confluent monolayers” for “Briefly, confluent monolayers”, “lysis was” for “lysis is”

Row | Compound | EC50 [µM]
1 | O=C(Nc1ccc(F)c(Cl)c1)c1cccc(SC2CCC(O)CC2)c1 (mixture of isomers) [Compound 34, (cis/trans)-N-(3-Chloro-4-fluorophenyl)-3-((4-hydroxycyclohexyl)thio)benzamide] | < 10
2 | O=C(Nc1ccc(F)c(Cl)c1)c1ccc(F)c(SC2CC(C(=O)O)C2)c1 (mixture of isomers) [Compound 58, (cis/trans)-3-((5-((3-Chloro-4-fluorophenyl)carbamoyl)-2-fluorophenyl)thio)cyclobutanecarboxylic acid] | < 10
3 | O=C(Nc1ccc(F)c(F)c1)c1ccc(F)c(SC2CC(C(=O)O)C2)c1 (mixture of isomers) [Compound 59, (cis/trans)-3-((5-((3,4-Difluorophenyl)carbamoyl)-2-fluorophenyl)thio)cyclobutanecarboxylic acid] | < 10
4 | O=C(Nc1ccc(F)c(Cl)c1)c1ccc(F)c(SC2CCC(C(=O)O)CC2)c1 (mixture of isomers) [Compound 61, (cis/trans)-4-((5-((3-Chloro-4-fluorophenyl)carbamoyl)-2-fluorophenyl)thio)cyclohexanecarboxylic acid] | < 10
5 | COc1ccc(C(=O)Nc2ccc(F)c(Cl)c2)cc1SC1CCC(O)CC1 (mixture of isomers) [Compound 70, (cis/trans)-N-(3-Chloro-4-fluorophenyl)-3-((4-hydroxycyclohexyl)thio)-4-methoxybenzamide] | < 10
6 | O=C(Nc1ccc(F)c(Cl)c1)c1ccc(Cl)c(SC2CCC(O)CC2)c1 (mixture of isomers) [Compound 75, (cis/trans)-4-Chloro-N-(3-chloro-4-fluorophenyl)-3-((4-hydroxycyclohexyl)thio)benzamide] | < 10
7 | Cc1ccc(C(=O)Nc2cc(F)c(F)c(F)c2)cc1SC1CCC(O)CC1 (mixture of isomers) [Compound 77, (cis/trans)-3-((4-Hydroxycyclohexyl)thio)-4-methyl-N-(3,4,5-trifluorophenyl)benzamide] | < 10
8 | O=C(Nc1cc(F)c(F)c(F)c1)c1ccc(Cl)c(SC2CCC(O)CC2)c1 (mixture of isomers) [Compound 81, (cis/trans)-4-Chloro-3-((4-hydroxycyclohexyl)thio)-N-(3,4,5-trifluorophenyl)benzamide] | < 10
9 | COc1ccc(C(=O)Nc2cc(F)c(F)c(F)c2)cc1SC1CCC(O)CC1 (mixture of isomers) [Compound 84, (cis/trans)-3-((4-Hydroxycyclohexyl)thio)-4-methoxy-N-(3,4,5-trifluorophenyl)benzamide] | < 10
10 | O=C(Nc1ccc(F)c(F)c1)c1ccc(Cl)c(SC2CCC(O)CC2)c1 (mixture of isomers) [Compound 87, (cis/trans)-4-Chloro-N-(3,4-difluorophenyl)-3-((4-hydroxycyclohexyl)thio)benzamide] | < 10
11 | COc1ccc(C(=O)Nc2ccc(F)c(F)c2)cc1SC1CCC(O)CC1 (mixture of isomers) [Compound 89, (cis/trans)-N-(3,4-Difluorophenyl)-3-((4-hydroxycyclohexyl)thio)-4-methoxybenzamide] | < 10
12 | N#Cc1ccc(C(=O)Nc2ccc(F)c(F)c2)cc1SC1CCC(O)CC1 (mixture of isomers) [Compound 93, (cis/trans)-4-Cyano-N-(3,4-difluorophenyl)-3-((4-hydroxycyclohexyl)thio)benzamide] | < 10
13 | N#Cc1ccc(C(=O)Nc2ccc(F)c(Cl)c2)cc1SC1CCC(O)CC1 (mixture of isomers) [Compound 95, (cis/trans)-N-(3-Chloro-4-fluorophenyl)-4-cyano-3-((4-hydroxycyclohexyl)thio)benzamide] | < 10
14 | CN(C)C(=O)C1CCC(Sc2cc(C(=O)Nc3cc(F)c(F)c(F)c3)ccc2F)CC1 (mixture of isomers) [Compound 103, (cis/trans)-3-((4-(Dimethylcarbamoyl)cyclohexyl)thio)-4-fluoro-N-(3,4,5-trifluorophenyl)benzamide] | < 10
15 | O=C(Nc1cc(F)c(F)c(F)c1)c1ccc(F)c(SC2CCC(C(=O)N3CCCCC3)CC2)c1 (mixture of isomers) [Compound 104, (cis/trans)-4-Fluoro-3-((4-(piperidine-1-carbonyl)cyclohexyl)thio)-N-(3,4,5-trifluorophenyl)benzamide] | < 10
16 | O=C(O)CC1CCC(Sc2cc(C(=O)Nc3ccc(F)c(Cl)c3)ccc2F)CC1 (mixture of isomers) [Compound 106, (cis/trans)-2-(4-((5-((3-Chloro-4-fluorophenyl)carbamoyl)-2-fluorophenyl)thio)cyclohexyl)acetic acid] | < 10

Row | Compound | EC50 [µM]
17 | O=C(O)CC1CCC(Sc2cc(C(=O)Nc3cc(F)c(F)c(F)c3)ccc2F)CC1 (mixture of isomers) [Compound 107, (cis/trans)-2-(4-((5-((3,4,5-trifluorophenyl)carbamoyl)-2-fluorophenyl)thio)cyclohexyl)acetic acid] | < 10
18 | O=C(Nc1cc(F)c(F)c(F)c1)c1ccc(F)c(SC2CCC(C(=O)N3CCNCC3)CC2)c1 (mixture of isomers) [Compound 108, (cis/trans)-4-Fluoro-3-((4-(piperazine-1-carbonyl)cyclohexyl)thio)-N-(3,4,5-trifluorophenyl)benzamide] | < 10
19 | O=C(Nc1ccc(F)c(Cl)c1)c1ccc(F)c(SCC2CCC(C(=O)O)CC2)c1 (mixture of isomers) [Compound 109, (cis/trans)-4-(((5-((3-Chloro-4-fluorophenyl)carbamoyl)-2-fluorophenyl)thio)methyl)cyclohexanecarboxylic acid] | < 10
20 | O=C(Nc1cc(F)c(F)c(F)c1)c1ccc(F)c(SCC2CCC(C(=O)O)CC2)c1 (mixture of isomers) [Compound 110, (cis/trans)-4-(((5-((3,4,5-trifluorophenyl)carbamoyl)-2-fluorophenyl)thio)methyl)cyclohexanecarboxylic acid] | < 10
21 | O=C1CCCCC(Sc2cc(C(=O)Nc3cc(F)c(F)c(F)c3)ccc2F)C1 (racemic) [Compound 12, (±)-4-Fluoro-3-((3-oxocydoheptyl)thio)-N-(3,4,5-trifluorophenyl)benzamide] | < 10
22 | O=C1CCCCC(Sc2cc(C(=O)Nc3ccc(F)c(Cl)c3)ccc2F)C1 (racemic) [Compound 13, (±)-N-(3-Chloro-4-fluorophenyl)-4-fluoro-3-((3-oxocycloheptyl)thio)benzamide] | < 10
23 | O=C(Nc1cc(F)c(F)c(F)c1)c1ccc(F)c(S[C@H]2CCCC[C@@H](O)C2)c1 (racemic) [Compound 14A, (±)-4-Fluoro-3-(((1S,3R)-3-hydroxycycloheptyl)thio)-N-(3,4,5-trifluorophenyl)benzamide] | < 10
24 | O=C(Nc1cc(F)c(F)c(F)c1)c1ccc(F)c(S[C@@H]2CCCC[C@@H](O)C2)c1 (racemic) [Compound 14B, (±)-4-Fluoro-3-(((1R,3R)-3-hydroxycycloheptyl)thio)-N-(3,4,5-trifluorophenyl)benzamide] | < 10
25 | O=C(Nc1cc(F)c(F)c(F)c1)c1ccc(F)c(SC2CCCCC(F)C2)c1 (racemic) [Compound 15, (±)-4-Fluoro-3-((3-fluorocycloheptyl)thio)-N-(3,4,5-trifluorophenyl)benzamide] | < 10
26 | O=C1CCCC(Sc2cc(C(=O)Nc3ccc(F)c(Cl)c3)ccc2F)C1 (racemic) [Compound 20, (±)N-(3-Chloro-4-fluorophenyl)-4-fluoro-3-((3-oxocyclohexyl)thio)benzamide] | < 10
27 | O=C(Nc1ccc(F)c(Cl)c1)c1ccc(F)c(S[C@@H]2CCC[C@@H](O)C2)c1 (racemic) [Compound 21, (±)-N-(3-Chloro-4-fluorophenyl)-4-fluoro-3-(((1R,3R)-3-hydroxycyclohexyl)thio)benzamide] | < 10
28 | O=C1CCC(Sc2cc(C(=O)Nc3ccc(F)c(Cl)c3)ccc2F)C1 (racemic) [Compound 22, (±)-N-(3-Chloro-4-fluorophenyl)-4-fluoro-3-((3-oxocyclopentyl)thio)benzamide] | < 10
29 | O=C(Nc1ccc(F)c(Cl)c1)c1ccc(F)c(S[C@H]2CC[C@H](O)C2)c1 (racemic) [Compound 25, (±)-N-(3-Chloro-4-fluorophenyl)-4-fluoro-3-(((1S,3S)-3-hydroxycyclopentyl)thio)benzamide] | < 10
30 | O=C(Nc1ccc(F)c(Cl)c1)c1ccc(F)c(SCC2CCOC2)c1 (racemic) [Compound 46, (±)-N-(3-Chloro-4-fluorophenyl)-4-fluoro-3-(((tetrahydrofuran-3-yl)methyl)thio)benzamide] | < 10
31 | O=C(Nc1ccc(F)c(Cl)c1)c1ccc(F)c(SC2CCCOC2)c1 (racemic) [Compound 64, (±)-N-(3-Chloro-4-fluorophenyl)-4-fluoro-3-((tetrahydro-2H-pyran-3-yl)thio)benzamide] | < 10
